# Reference: patent US20250206701A1
# pIC50: −log10 of the molar value. Values joined by “and” are separate entries in the source; they are usually repeats but may differ in a detail not shown here. Equal values may be shown once. “Also recorded” adds a separate entry of the source.
# What was measured:
# 5-HT2A receptor = biological target: T1, 5-HT2A receptor (Mus musculus, UniProt P35363); assay: Drug-induced Head Twitch Response (HTR) in mice; assay type: in vivo, C57BL/6-Elite mice; conditions: 1 mg/kg i.p.; for Head Twitch Response (HTR): 15-to-30-minute window post-drug, relative to vehicle
# T1 construct: tissue Charles River; host or cells: living C57BL/6-Elite mice (brain, in vivo)
# [1] = In vitro metabolic stability / psilocin release assays (liver, intestinal, serum fractions, buffer)
# [2] = Mouse PK study: plasma parent compound and psilocin metabolite after dosing of the labelled compound; conditions: for Plasma concentration of E(VI) / AUC0-tlast/Dose of E(VI) / Plasma concentration of psilocybin: 1 mg/kg i.v.
# 5-HT1A receptor = biological target: T2, 5-HT1A receptor (Homo sapiens, UniProt P08908); assay: cAMP-Glo assay of 5-HT1A receptor modulation in CHO-K1/5-HT1A/Ga15 cells; assay type: cell-based; conditions: +5-HT1A vs −5-HT1A cells, 4 mM forskolin, increasing ligand concentrations
# T2 construct: host or cells: CHO-K1 (co-expressing Ga15)
# T2 sequence (P08908 1-422): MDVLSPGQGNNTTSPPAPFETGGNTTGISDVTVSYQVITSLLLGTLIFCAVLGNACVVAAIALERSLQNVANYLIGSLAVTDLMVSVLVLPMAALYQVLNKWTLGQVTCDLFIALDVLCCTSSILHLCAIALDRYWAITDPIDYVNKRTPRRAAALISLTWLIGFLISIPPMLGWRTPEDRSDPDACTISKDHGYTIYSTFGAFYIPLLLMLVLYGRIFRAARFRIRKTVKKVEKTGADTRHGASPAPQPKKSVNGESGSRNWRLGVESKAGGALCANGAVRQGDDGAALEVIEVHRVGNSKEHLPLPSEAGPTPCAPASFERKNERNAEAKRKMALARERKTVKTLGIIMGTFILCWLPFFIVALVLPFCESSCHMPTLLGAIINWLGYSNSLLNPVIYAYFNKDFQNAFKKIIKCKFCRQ
# AVPR1A = AVPR1A (Homo sapiens, UniProt P37288); assay: SAFETYscan calcium secondary messenger assay, AVPR1A; assay type: cell-based
# MAO-A = biological target: T3, MAO-A (Homo sapiens, UniProt P21397); assay: SAFETYscan MAO-A enzyme assay; assay type: biochemical
# T3 construct: purchased Sigma
# T3 sequence (P21397 1-527): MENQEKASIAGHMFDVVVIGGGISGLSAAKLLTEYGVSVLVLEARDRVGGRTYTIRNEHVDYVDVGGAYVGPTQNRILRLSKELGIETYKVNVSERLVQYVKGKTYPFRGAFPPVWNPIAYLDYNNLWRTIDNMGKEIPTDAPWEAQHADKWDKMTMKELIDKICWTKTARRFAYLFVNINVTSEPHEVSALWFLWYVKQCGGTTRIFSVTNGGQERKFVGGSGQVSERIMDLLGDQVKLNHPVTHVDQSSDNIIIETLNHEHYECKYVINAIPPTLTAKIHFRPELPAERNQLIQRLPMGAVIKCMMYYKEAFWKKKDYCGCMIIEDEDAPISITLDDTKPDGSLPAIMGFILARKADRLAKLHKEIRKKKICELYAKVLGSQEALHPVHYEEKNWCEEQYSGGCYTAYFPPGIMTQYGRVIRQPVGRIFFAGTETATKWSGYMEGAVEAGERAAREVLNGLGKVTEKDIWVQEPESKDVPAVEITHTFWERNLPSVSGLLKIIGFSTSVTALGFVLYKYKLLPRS
# [3] = 3 mg/kg oral, 24 h, individual mice, BLQ = below 0.2 ng/mL
# [4] = oral doses, any dose / timepoint
# T1 sequence (P35363 whole entry): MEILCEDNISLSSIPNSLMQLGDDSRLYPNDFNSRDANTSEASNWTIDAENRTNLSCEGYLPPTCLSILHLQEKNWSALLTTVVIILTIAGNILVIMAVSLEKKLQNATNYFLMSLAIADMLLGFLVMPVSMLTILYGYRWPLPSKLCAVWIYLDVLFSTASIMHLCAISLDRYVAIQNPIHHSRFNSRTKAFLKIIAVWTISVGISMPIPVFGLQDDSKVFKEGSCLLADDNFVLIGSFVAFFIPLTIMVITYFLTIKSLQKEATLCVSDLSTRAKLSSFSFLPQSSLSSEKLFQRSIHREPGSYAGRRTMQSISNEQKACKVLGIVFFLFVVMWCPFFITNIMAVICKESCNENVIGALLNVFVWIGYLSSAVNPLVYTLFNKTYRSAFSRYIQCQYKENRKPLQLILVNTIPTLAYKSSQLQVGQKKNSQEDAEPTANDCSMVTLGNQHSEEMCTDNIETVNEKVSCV
# Chain of AVPR1A (P37288 whole entry): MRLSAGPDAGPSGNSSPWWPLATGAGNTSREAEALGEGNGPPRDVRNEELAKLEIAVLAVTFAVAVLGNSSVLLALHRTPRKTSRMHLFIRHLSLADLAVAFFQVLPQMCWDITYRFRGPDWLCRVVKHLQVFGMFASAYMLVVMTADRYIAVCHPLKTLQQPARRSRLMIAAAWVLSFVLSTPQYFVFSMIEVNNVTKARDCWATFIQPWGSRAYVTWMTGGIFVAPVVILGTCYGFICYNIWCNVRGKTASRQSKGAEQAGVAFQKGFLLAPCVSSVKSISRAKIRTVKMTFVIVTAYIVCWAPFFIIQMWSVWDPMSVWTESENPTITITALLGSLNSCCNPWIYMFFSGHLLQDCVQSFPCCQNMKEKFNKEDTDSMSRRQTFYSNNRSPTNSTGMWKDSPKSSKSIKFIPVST
compound,measurement,setting,value
CN(C)CCc1c[nH]c2cccc(OC(=O)OCc3ccccc3)c12 [B(II)],Head Twitch Response (HTR),5-HT2A receptor,elicit head twitching
same,dissociation to psilocin,"[1]; HLM, HLS9, HIM, HIS9, AB serum, buffer control (any conditions)",did not readily dissociate to psilocin under any conditions
same,detection of parent compound in plasma after oral administration,[2]; 1 mg/kg oral,neither B(II) nor E(VI) were detected in plasma
same,Plasma concentration of psilocin,"[2]; 1 mg/kg oral, 0.25 h, mean ± SD",19.7 ± 5.50 ng/mL
same,Plasma concentration of psilocin,"[2]; 1 mg/kg oral, 0.5 h, mean ± SD",11.9 ± 2.03 ng/mL
same,Plasma concentration of psilocin,"[2]; 1 mg/kg oral, 1 h, mean ± SD",4.63 ± 0.788 ng/mL
same,Plasma concentration of psilocin,"[2]; 1 mg/kg oral, 2 h, mean ± SD",2.20 ± 0.850 ng/mL
same,Plasma concentration of psilocin,"[2]; 1 mg/kg oral, 4 h, mean ± SD",2.05 ± 0.359 ng/mL
same,Plasma concentration of psilocin,"[2]; 1 mg/kg oral, 6 h, mean ± SD",0.739 ± 0.288 ng/mL
same,Plasma concentration of psilocin,"[2]; 1 mg/kg oral, 8 h, mean ± SD",0.453 ± 0.0460 ng/mL
same,Cmax/Dose of psilocin,"[2]; 1 mg/kg oral, dose of administered compound used, mean ± SD",19.7 ± 5.50 kg·ng/mL/mg
same,Plasma concentration of psilocin,"[2]; 3 mg/kg oral, 0.25 h, mean ± SD",55.6 ± 8.67 ng/mL
same,Plasma concentration of psilocin,"[2]; 3 mg/kg oral, 0.5 h, mean ± SD",32.3 ± 4.98 ng/mL
same,Plasma concentration of psilocin,"[2]; 3 mg/kg oral, 1 h, mean ± SD",9.29 ± 3.05 ng/mL
same,Plasma concentration of psilocin,"[2]; 3 mg/kg oral, 2 h, mean ± SD",7.67 ± 0.921 ng/mL
same,Plasma concentration of psilocin,"[2]; 3 mg/kg oral, 4 h, mean ± SD",6.76 ± 2.13 ng/mL
same,Plasma concentration of psilocin,"[2]; 3 mg/kg oral, 6 h, mean ± SD",2.41 ± 0.845 ng/mL
same,Plasma concentration of psilocin,"[2]; 3 mg/kg oral, 8 h, mean ± SD",0.722 ± 0.368 ng/mL
same,AUC0-tlast/Dose of psilocin,"[2]; 3 mg/kg oral, dose of administered compound used, mean ± SD",20.3 ± 2.78 kg·ng·h/mL/mg
same,time parent compound resides in plasma post-dosing,[2]; 10 mg/kg oral,up to 4 hours
same,Plasma concentration of psilocin,"[2]; 10 mg/kg oral, 0.25 h, mean ± SD",306 ± 34.6 ng/mL
same,Plasma concentration of psilocin,"[2]; 10 mg/kg oral, 0.5 h, mean ± SD",125 ± 16.3 ng/mL
same,Plasma concentration of psilocin,"[2]; 10 mg/kg oral, 1 h, mean ± SD",49.6 ± 10.5 ng/mL
same,Plasma concentration of psilocin,"[2]; 10 mg/kg oral, 2 h, mean ± SD",20.7 ± 1.42 ng/mL
same,Plasma concentration of psilocin,"[2]; 10 mg/kg oral, 4 h, mean ± SD",31.4 ± 6.34 ng/mL
same,Plasma concentration of psilocin,"[2]; 10 mg/kg oral, 6 h, mean ± SD",11.5 ± 1.43 ng/mL
same,Plasma concentration of psilocin,"[2]; 10 mg/kg oral, 8 h, mean ± SD",6.38 ± 2.98 ng/mL
same,Cmax/Dose of psilocin,"[2]; 10 mg/kg oral, dose of administered compound used, mean ± SD",30.6 ± 3.46 kg·ng/mL/mg
same,psilocin levels / exposure compared with E(VI)-treated mice,"[2]; oral dosing, Tables 16 and 17",higher psilocin levels
CN(C)CCc1c[nH]c2cccc(OC(=O)SCc3ccccc3)c12 [E(VI)],5-HT1A receptor modulation (change in % cAMP),5-HT1A receptor,mild receptor modulation at higher ligand concentrations
same,Head Twitch Response (HTR),5-HT2A receptor,Elevated incidences of HTR; also recorded: elicit head twitching
same,HTR of E(VI) compared to B(II),5-HT2A receptor; side-by-side (FIG. 4F),elevated response
same,pIC50,AVPR1A,< 5.00
same,pIC50,MAO-A,< 5.00
same,Plasma concentration of E(VI),"[2]; 5 min, individual mice, concentrations not considered accurate",3.20 ng/mL and 59.0 ng/mL and 11.1 ng/mL
same,Plasma concentration of E(VI),"[2]; 5 min, mean ± SD, concentrations not considered accurate",24.4 ± 30.2 ng/mL
same,Plasma concentration of E(VI),"[2]; 0.25 h, individual mice, concentrations not considered accurate",72.1 ng/mL and 110 ng/mL and 7.79 ng/mL
same,Plasma concentration of E(VI),"[2]; 0.25 h, mean ± SD, concentrations not considered accurate",63.3 ± 51.7 ng/mL
same,Plasma concentration of E(VI),"[2]; 0.5 h, individual mice, concentrations not considered accurate",13.1 ng/mL and 9.29 ng/mL and 1.03 ng/mL
same,Plasma concentration of E(VI),"[2]; 0.5 h, mean ± SD, concentrations not considered accurate",7.81 ± 6.17 ng/mL
same,Plasma concentration of E(VI),"[2]; 1 h, individual mice, concentrations not considered accurate",3.14 ng/mL and 5.84 ng/mL and No Peak
same,Plasma concentration of E(VI),"[2]; 1 h, mean, concentrations not considered accurate",4.49 ng/mL
same,Plasma concentration of E(VI),"[2]; 2 h, individual mice, values below LLOQ 1 ng/mL included",0.776 ng/mL and 0.594 ng/mL and No Peak
same,Plasma concentration of E(VI),"[2]; 2 h, mean, concentrations not considered accurate",0.685 ng/mL
same,Plasma concentration of E(VI),"[2]; 4 h, individual mice, BLQ = below 1 ng/mL",BLQ (2×) and No Peak
same,Plasma concentration of E(VI),"[2]; 6 h, individual mice, BLQ = below 1 ng/mL",No Peak (2×) and BLQ
same,Plasma concentration of E(VI),"[2]; 8 h, individual mice",No Peak
same,AUC0-tlast/Dose of E(VI),[2]; individual mice,20.4 kg·ng·h/mL/mg and 35.2 kg·ng·h/mL/mg and 3.40 kg·ng·h/mL/mg
same,AUC0-tlast/Dose of E(VI),[2]; mean ± SD,19.7 ± 15.9 kg·ng·h/mL/mg
same,detection of parent compound in plasma after oral administration,[2]; 1 mg/kg oral,neither B(II) nor E(VI) were detected in plasma
same,Plasma concentration of psilocin,"[2]; 1 mg/kg oral, 8 h, individual mice, BLQ = below 0.2 ng/mL",BLQ
same,Plasma concentration of psilocin,[2]; [3],No Peak (2×) and BLQ
same,Plasma concentration of psilocin,"[2]; 10 mg/kg oral, 24 h, individual mice, BLQ = below 0.2 ng/mL",BLQ
same,detection of parent compound in plasma after oral administration,[2]; [4],did not yield any detectable levels of E(VI); also recorded: never detected at any timepoint
CN(C)CCc1c[nH]c2cccc(O)c12 [psilocin],5-HT1A receptor modulation (change in % cAMP),5-HT1A receptor,reduction in cAMP levels
CN(C)CCc1c[nH]c2cccc(OP(=O)(O)O)c12 [psilocybin],stability,[1]; assay buffer (enzyme-free control),stability of psilocybin was confirmed in assay buffer
same,stability and conversion to psilocin,"[1]; liver fractions (HLM, HLS9)",stable in liver fractions with no conversion to psilocin
same,Plasma concentration of psilocybin,"[2]; 0.5 h, individual mice, No Peak = no detectable compound by LC-MS",No Peak and 2.35 ng/mL and 6.21 ng/mL
same,Plasma concentration of psilocybin,"[2]; 0.5 h, mean",4.28 (n = 2) ng/mL
same,Plasma concentration of psilocybin,"[2]; 1 h, individual mice, No Peak = no detectable compound by LC-MS",No Peak (2×) and 1.21 ng/mL
same,Plasma concentration of psilocybin,"[2]; 1 h, mean",1.21 (n = 1) ng/mL
same,Plasma concentration of psilocybin,"[2]; 2 h, individual mice, No Peak = no detectable compound by LC-MS",No Peak
same,Plasma concentration of psilocybin,"[2]; 4 h, individual mice, No Peak = no detectable compound by LC-MS",No Peak
same,Plasma concentration of psilocybin,"[2]; 6 h, individual mice, No Peak = no detectable compound by LC-MS",No Peak
same,Plasma concentration of psilocybin,"[2]; 8 h, individual mice, No Peak = no detectable compound by LC-MS, bolded value considered an outlier",No Peak (2×) and 2.54 ng/mL
same,Plasma concentration of psilocin,"[2]; 1.56 mg/kg oral, 24 h, individual mice, BLQ = below 0.2 ng/mL",BLQ
same,Plasma concentration of psilocin,[2]; [3],BLQ
same,detection of parent compound in plasma after oral administration,[2]; [4],not detectable in orally administered animals at any dose
NCCc1c[nH]c2ccc(O)cc12 [serotonin],5-HT1A receptor modulation (change in % cAMP),5-HT1A receptor,reduction in cAMP levels
N[C@@H](Cc1c[nH]c2ccccc12)C(=O)O [tryptophan],5-HT1A receptor modulation (change in % cAMP),5-HT1A receptor,no reduction in cellular cAMP levels
